Measurements: patent US20220000964A1, “Compositions and Methods for Regulating Homeostasis of Chondrocytes, Extracellular Matrix, Articular Cartilage, and Phenotype of Arthritis” (Unigen, Inc., priority 2020, published 2022)
Values joined by “and” are separate entries in the source; they are usually repeats but may differ in a detail not shown here. Equal entries are not always repeated.

Columns and labels:
Sprague Dawley rats = assay: Hot plate test, topical application, paw withdrawal latency; assay type: in vivo, rat; settings: for Paw withdrawal threshold (latency) Mean ± SD: in s (unit assumed); for % Change: negative = increased paw withdrawal latency; for increase in paw withdrawal latency as compared to vehicle: 5% concentration
Description: Repeated application of anti-inflammatory compounds or extracts topically at the site of thermal contact (noxious stimulus) may cause desensitization of the peripheral afferent pain receptors to produce a delay in response time. A longer change in reaction time could be interpreted as an anti-nociceptive effect of the applied compound. To evaluate whether prepared plant extracts and compositions could provide anti-nociceptive activity, rats received orally-active anti-inflammatory extracts formulated in 2% Aloe vera gel at 5% concentration topically on their hind paws. The applied preparations on each paw were massaged at least 60 times in a circular motion into the skin until the applied content appeared visually absorbed. The procedure was repeated 3 times, every 30 minutes, before placing the animals on a preheated hot plate set to 53° C. The paw withdrawal latency was calculated as the time elapsed from the initial placement of the rat onto the hotplate to the withdrawal (or licking or shaking) of the hind paw in response to the thermal stimulus. Animals were immediately removed when this response was observed.
The anti-pain activity of medicinal plant extracts was tested on a hot plate set at 53° C. Test materials at 5% concentrations were topically applied at 20 μl/paw to the hind paws of both right and left paws of Sprague Dawley rats (n=10 per group). Applications of these extracts were carried out every 30 minutes for a total of 90 minutes. Within these 90 minutes, rats received a total of 60 μl/paw of the test article per rat. At 5% concentration, each rat received 3 mg/paw of the test articles. Due to the solubility characteristics of the compounds, two types of vehicles, V1=Dimethyl sulfoxide (DMSO)+propylene glycol (PG)+Aloe (2%), and V2=DMSO+OIL+PG, were used. Percent changes and P-values for statistical significance were determined using respective vehicles for each test material. The vehicle used for each material has been indicated in the parenthesis next to the test material. […] These increases in anti-pain activity were statistically significant. […] This percent change was statistically significant when compared to its respective vehicle.

[1] = system: rabbit cartilage explants; assay: Inhibition of glycosaminoglycan (GAG) release, rabbit cartilage explants stimulated with rhIL-1α; assay type: cell-based; settings: for inhibition at 25 µg/mL: 25 μg/ml; for inhibition at 100 µg/mL: 100 μg/ml
Description: Articular cartilage from hock joints of rabbits (2.5 kg body weight) was removed immediately after each animal was sacrificed. The articular cartilage explants were obtained by following the method described by Sandy et al, 1986. Briefly, after the articular surfaces were exposed surgically under sterile conditions, approximately 200-220 mg articular surfaces per joint were dissected and submerged into complete medium (DMEM, supplemented with heat inactivated 5% FBS; penicillin 100 U/ml; streptomycin 100 μg/ml). They were then rinsed several times with the complete medium and incubated for 2 days at 37° C. in a humidified 5% CO2/95% air incubator for stabilization. The complete medium was replaced with a basal medium (DMEM, supplemented with heat-inactivated 1% FBS, 10 mM HEPES, and penicillin 100 U/ml streptomycin 100 μg/ml). Approximately 30 mg cartilage pieces (2×3×0.35 mm/piece) were placed in 48-well plates and treated with given concentrations of test agents. After pretreatment for 1 h, 5 ng/ml of rhIL-1α was added to the culture medium and further incubated at 37° C. in a humidified 5% CO2/95% air incubator. The culture medium was collected 24 h later and stored at −80° C. until assay.
The amount of sulphated GAGs in the medium at the end of the reaction, reflecting the amount of articular cartilage degradation, was determined through 1,9-dimethy-methylene blue method using commercially available kit (the Blyscan proteoglycan and glycosaminoglycan assay) according to the instructions of the manufacturer. Diclofenac was utilized as a positive control at 300 μg/ml.
Dose curves of Alpinia, Pepper, Magnolia, and Kochia plant extracts were tested on the ex vivo glycosaminoglycan (GAG) release assay as illustrated in previous example to assess their cartilage protection effects. Cartilage explants were pre-treated with each extract before being exposed to IL-1α, which caused degradation and the release of GAGs from the cartilage matrix.

[2] = system: Carrageenan-induced paw edema in rats; assay: Carrageenan-induced paw edema in rats, paw edema (anti-inflammation); assay type: in vivo, rat
Description: (§1) Carrageenan-induced paw edema in rats was used to evaluate the anti-inflammatory and anti-pain activities of individual Alpinia, Pepper, Magnolia and Kochia extracts. Sprague Dawley (SD) rats (N=5 per group) were given Alpinia, Pepper, Magnolia and Kochia extracts at 300 mg/kg orally one hour […] intra-plantar injection of 100 μl carrageenan. Pain sensitivity and paw edema were monitored at T0 (before carrageenan) and 2, 4 and 6 hours after carrageenan. Ibuprofen as a positive control was used at 150 mg/kg.
(§2) Rats were gavaged with each constituent as they appeared in the 300 mg/kg of the AMK individually in order to determine whether the plant extracts acted synergistically. For the 2:4:3 ratio of AMK, rats were administered with 67 mg/kg of Alpinia extract, 133 mg/kg of Magnolia extract and 100 mg/kg of Kochia extract. The percent inhibition of pain and inflammation of the combined compositions at 300 mg/kg were compared with those dosages of individual extracts to find out potential additive, antagonistic or synergistic effects in combination using the Colby's equation.
(§3) The merit of combining Alpinia with Pepper for AP (1:2 ratio) was evaluated in the carrageenan rat paw edema model. Rats were gavaged with each constituent as they appeared in 300 mg/kg of the AP. For the 1:2 ratio of AP, 100 mg/kg of Alpinia and 200 mg/kg of Pepper extract were administered to the rats. The percent inhibition of pain and inflammation of the compositions at 300 mg/kg was compared with those dosages of individual extracts to find out potential additive, antagonistic or synergistic effects in combination using Colby's equation (Colby 1967). For the blending of these plant extracts to have unexpected synergy, the observed inhibition needed to be greater than the calculated value.

[3] = system: Carrageenan-induced paw edema in rats; assay: Carrageenan-induced paw edema in rats, pain sensitivity (anti-pain); assay type: in vivo, rat
Description: as §1, §2, §3

[4] = hot plate 53° C., topical, vehicle V1 (DMSO+PG+Aloe 2%), dose (%): Ibuprofen 5, Capsaicin 0.5, Diclofenac 1, others 5
[5] = vs vehicle V1, dose (%): Ibuprofen 5, Capsaicin 0.5, Diclofenac 1, others 5
[6] = 100 mg/kg oral, 1 hr after treatment
[7] = 100 mg/kg oral, 3 hr after treatment
[8] = 100 mg/kg oral, 5 hr after treatment
[9] = 150 mg/kg oral, 1 hr after treatment
[10] = 150 mg/kg oral, 3 hr after treatment
[11] = 150 mg/kg oral, 5 hr after treatment

Compound: COc1cc(CNC(=O)CCCC/C=C/C(C)C)ccc1O [Capsaicin]
- Paw withdrawal threshold (latency) Mean ± SD (Sprague Dawley rats; [4]): 4.51 ± 1.12
- decrease in paw withdrawal latency compared to vehicle (Sprague Dawley rats; topical, hot plate 53° C.): 36.7%
- % Change (Sprague Dawley rats; [5]): 36.7%

Compound: C=CCc1ccc(O)c(-c2ccc(O)c(CC=C)c2)c1 [Honokiol]
- inhibition at 10 µg/mL ([1]; Oryctolagus cuniculus, 10 μg/ml): 104%
- inhibition at 50 µg/mL ([1]; Oryctolagus cuniculus, 50 μg/ml): 119%

Compound: CC1(C)CCC2(C(=O)O)CCC3(C)C(=CCC4C5(C)CCC(OC6OC(C(=O)O)C(O)C(OC7OCC(O)C(O)C7O)C6O)C(C)(C)C5CCC43C)C2C1 (stereo not drawn) [Momordin lc]
- inhibition at 25 µg/mL ([1]; Oryctolagus cuniculus): 84%
- inhibition at 100 µg/mL ([1]; Oryctolagus cuniculus): 83%

Compound: C=CCc1ccc(O)c(-c2cc(CC=C)ccc2O)c1 [Magnolol]
- Inhibition of GAG release ([1]; 10 μg/ml): 97%
- Inhibition of GAG release ([1]; 50 μg/ml): 97%

Compound: CC1CCC(C(C)C)C(O)C1 (stereo not drawn) [Menthol]
- Paw withdrawal threshold (latency) Mean ± SD (Sprague Dawley rats; [4]): 6.05 ± 1.70
- % Change (Sprague Dawley rats; [5]): 15.1%

Compound: CC(C)Cc1ccc(C(C)C(=O)O)cc1 (stereo not drawn) [Ibuprofen]
- Anti-inflammation Percent change vs vehicle [2, 6]: 50.07% and 45.00% and 51.0%
- Anti-inflammation Percent change vs vehicle [2, 7]: 47.40% and 50.31% and 48.0%
- Anti-inflammation Percent change vs vehicle [2, 8]: 37.28% and 41.84% and 39.0%
- Paw edema, Average ([2]; 150 mg/kg oral, 1 hr): 1.43
- Anti-inflammation Percent change vs vehicle [2, 9]: 43.03% and 49.50% and 47.3%
- Paw edema, Average ([2]; 150 mg/kg oral, 3 hr): 1.59
- Anti-inflammation Percent change vs vehicle [2, 10]: 48.38% and 48.62% and 49.7%
- Paw edema, Average ([2]; 150 mg/kg oral, 5 hr): 1.77
- Anti-inflammation Percent change vs vehicle [2, 11]: 36.79% and 37.66% and 37.6%
- Paw withdrawal threshold (latency) Mean ± SD (Sprague Dawley rats; [4]): 8.73 ± 1.37
- Paw withdrawal threshold (latency) Mean ± SD (Sprague Dawley rats; hot plate 53° C., topical, vehicle V2 (DMSO+OIL+PG), run 2, dose 5%): 6.05 ± 1.98
- increase in paw withdrawal latency as compared to vehicle (Sprague Dawley rats; topical, hot plate 53° C.): 22.4%
- % Change (Sprague Dawley rats; [5]): −22.4%
- % Change (Sprague Dawley rats; vs vehicle V2 run 2, dose 5%): −23.98%
- Anti-pain Percent change vs vehicle [3, 6]: 50.51% and 48.44% and 50.5%
- Anti-pain Percent change vs vehicle [3, 7]: 46.37% and 47.46% and 46.1%
- Anti-pain Percent change vs vehicle [3, 8]: 37.42% and 37.77% and 38.5%
- Pain sensitivity, Average ([3]; 150 mg/kg oral, 1 hr): 25.02
- Anti-pain Percent change vs vehicle [3, 9]: 46.49% and 50.51% and 44.4%
- Pain sensitivity, Average ([3]; 150 mg/kg oral, 3 hr): 35.67
- Anti-pain Percent change vs vehicle [3, 10]: 45.85% and 46.37% and 47.9%
- Pain sensitivity, Average ([3]; 150 mg/kg oral, 5 hr): 45.49
- Anti-pain Percent change vs vehicle [3, 11]: 33.55% and 37.42% and 30.8%

Compound: CC(=O)OC/C=C/c1ccc(OC(C)=O)cc1 [p-coumaryl diacetate]
- inhibition at 25 µg/mL ([1]; Oryctolagus cuniculus): 111%
- inhibition at 100 µg/mL ([1]; Oryctolagus cuniculus): 138%

Compound: C=C[C@H](OC(C)=O)c1ccc(OC(C)=O)cc1 [1′-acetoxychavicol acetate]
- inhibition at 25 µg/mL ([1]; Oryctolagus cuniculus): 99%
- inhibition at 100 µg/mL ([1]; Oryctolagus cuniculus): 109%

Compound: Piperine
- Paw withdrawal threshold (latency) Mean ± SD (Sprague Dawley rats; hot plate 53° C., topical, vehicle V2 (DMSO+OIL+PG), run 1, dose 5%): 7.97 ± 1.86
- increase in paw withdrawal latency as compared to vehicle (Sprague Dawley rats; topical, hot plate 53° C.): 32.6%
- % Change (Sprague Dawley rats; vs vehicle V2 run 1, dose 5%): −32.6%
- Inhibition of GAG release ([1]; 50 μg/ml): 98%
